This is an account of results in ChEMBL document CHEMBL1201862, “PubChem BioAssay data set” (2004).

As a reminder, the IC50 is the midpoint of a concentration-inhibition curve. The term AC50 denotes the midpoint of the concentration-response curve, whichever way the signal moves.

The target of one assay is T1, Cysteine protease ATG4B (Homo sapiens, UniProt Q9Y4P1).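 Note: Fluorescence-based dose-response confirmation assay measuring inhibition of ATG4B activity.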
T1 sequence (Q9Y4P1 whole entry): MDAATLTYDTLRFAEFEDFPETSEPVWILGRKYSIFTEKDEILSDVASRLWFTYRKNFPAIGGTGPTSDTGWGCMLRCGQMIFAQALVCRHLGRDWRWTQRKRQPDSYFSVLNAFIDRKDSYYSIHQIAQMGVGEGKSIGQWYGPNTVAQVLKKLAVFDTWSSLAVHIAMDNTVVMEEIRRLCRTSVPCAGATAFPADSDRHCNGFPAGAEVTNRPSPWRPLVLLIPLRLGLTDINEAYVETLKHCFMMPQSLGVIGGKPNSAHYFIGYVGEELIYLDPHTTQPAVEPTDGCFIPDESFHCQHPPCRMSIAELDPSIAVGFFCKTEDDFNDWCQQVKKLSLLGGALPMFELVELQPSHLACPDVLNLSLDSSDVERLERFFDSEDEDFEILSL
It counts as functional.

The target of the next assay is T2, Streptokinase A (Streptococcus pyogenes serotype M1, UniProt P10520).
T2 sequence (P10520 whole entry): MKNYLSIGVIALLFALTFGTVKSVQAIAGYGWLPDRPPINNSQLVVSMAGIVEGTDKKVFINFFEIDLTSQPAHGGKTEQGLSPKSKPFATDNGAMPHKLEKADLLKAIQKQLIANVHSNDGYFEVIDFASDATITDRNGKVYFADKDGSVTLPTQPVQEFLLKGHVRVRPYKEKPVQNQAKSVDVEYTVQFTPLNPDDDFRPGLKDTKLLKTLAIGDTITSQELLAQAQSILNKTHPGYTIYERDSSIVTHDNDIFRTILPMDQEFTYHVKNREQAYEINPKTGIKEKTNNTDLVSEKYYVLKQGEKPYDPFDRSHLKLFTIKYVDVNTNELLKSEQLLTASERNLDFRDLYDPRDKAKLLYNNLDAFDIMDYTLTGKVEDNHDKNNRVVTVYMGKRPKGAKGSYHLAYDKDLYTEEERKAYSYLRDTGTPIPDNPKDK
Description: S. pyogenes streptokinase expression inhibitors, potency, dose response, plasminogen activation absorbance, OD405 (AID 1914).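 Note: secreted streptokinase activity via plasminogen activation per viability signal from cell pellet.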 The class given is functional, Streptococcus pyogenes M1 GAS.

The test system of assay [1] is Streptococcus sp. 'group A'. Description: growth inhibition of control SK(-) GAS strain, dose response, counter-screen for streptokinase expression inhibitor project, luminescence, kanamycin, BacTiterGlo, confirmation (AID 1900). It counts as functional, organism-based.
The target of the next assay is Phospholipase A2 (Homo sapiens, UniProt P04054). The class given is functional.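 Note: confirmatory dose-response counterscreen on phospholipase A2, testing hits that came from an ultra-high-throughput screen for ATG4B inhibitors.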
Chain of Phospholipase A2 (P04054 whole entry): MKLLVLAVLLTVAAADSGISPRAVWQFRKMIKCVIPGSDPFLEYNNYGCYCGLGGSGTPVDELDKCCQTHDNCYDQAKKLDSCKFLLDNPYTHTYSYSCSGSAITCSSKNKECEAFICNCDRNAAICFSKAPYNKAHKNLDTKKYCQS
The test system of another assay is Streptococcus. Description: Group A Streptococcus viability loss, dose response, counter-screen for streptokinase expression inhibitor project, luminescence, BacTiterGlo (AID 1915).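 Note: potency for reduction of bacterial viability or growth.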 It counts as functional, organism-based. For orientation: Counterscreens check selectivity or assay interference.
Assay [2] in a line: C. albicans growth with fluconazole, confirmation, fluorescence, retest (AID 2467). It counts as functional, cell-based.
Assay [3] is described as follows: NIH-3T3 fibroblast cytotoxicity, dose response, cytotoxicity control, cell-based, fluorescence, Alamar Blue, secondary assay (AID 2327).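 Note: NIH-3T3 mouse fibroblasts cultured with fluconazole at 8 µg/mL.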 The class given is functional. On the technique in general: The colour change of resazurin is a common sign of viable cells or microbes.
For assay [4], the target named is T3, High affinity choline transporter 1 (Homo sapiens, UniProt Q9GZV3).
T3 sequence (Q9GZV3 whole entry): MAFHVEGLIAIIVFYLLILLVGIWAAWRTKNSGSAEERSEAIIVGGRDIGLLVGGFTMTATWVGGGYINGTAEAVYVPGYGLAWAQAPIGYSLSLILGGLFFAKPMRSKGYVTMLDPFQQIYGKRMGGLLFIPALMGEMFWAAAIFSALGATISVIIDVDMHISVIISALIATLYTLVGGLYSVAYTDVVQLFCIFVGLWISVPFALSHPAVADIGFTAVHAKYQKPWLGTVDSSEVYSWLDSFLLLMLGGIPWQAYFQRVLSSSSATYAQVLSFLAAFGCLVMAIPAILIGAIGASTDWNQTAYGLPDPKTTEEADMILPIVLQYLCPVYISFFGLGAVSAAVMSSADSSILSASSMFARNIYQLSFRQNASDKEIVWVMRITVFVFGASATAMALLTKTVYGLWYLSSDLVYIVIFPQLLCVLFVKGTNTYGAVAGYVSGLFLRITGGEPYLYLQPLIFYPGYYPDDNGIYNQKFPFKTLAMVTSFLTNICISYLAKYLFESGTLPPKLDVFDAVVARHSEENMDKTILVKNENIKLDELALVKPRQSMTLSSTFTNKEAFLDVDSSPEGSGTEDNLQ
In words: CHT inhibitors, dose response, cell-based, 5-point CRC, membrane potential dye (AID 504840). It counts as functional.

The target of assay [5] is T3, High affinity choline transporter 1. Description: CHT inhibitors, dose response, cell-based, 10-point CRC, membrane potential dye (AID 588401).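 Note: membrane potential dye fluorescence of choline-evoked depolarization via CHT.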 The class given is functional.
Assay [6] has as its target T4, Corticotropin-releasing factor receptor 2/Corticotropin-releasing factor-binding protein (Homo sapiens, UniProt P24387+Q13324).
T4 sequence (Q13324 whole entry): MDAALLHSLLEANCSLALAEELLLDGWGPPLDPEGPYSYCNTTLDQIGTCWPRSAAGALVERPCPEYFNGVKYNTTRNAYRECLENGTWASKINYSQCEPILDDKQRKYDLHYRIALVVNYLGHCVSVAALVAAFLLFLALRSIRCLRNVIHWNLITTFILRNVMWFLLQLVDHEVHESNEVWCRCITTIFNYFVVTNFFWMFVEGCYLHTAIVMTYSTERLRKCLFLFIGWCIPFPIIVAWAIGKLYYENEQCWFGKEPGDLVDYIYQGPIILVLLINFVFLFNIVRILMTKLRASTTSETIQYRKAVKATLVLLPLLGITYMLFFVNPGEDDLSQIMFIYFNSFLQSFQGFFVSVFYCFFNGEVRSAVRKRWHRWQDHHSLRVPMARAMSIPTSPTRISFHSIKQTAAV
T4 sequence (P24387 whole entry): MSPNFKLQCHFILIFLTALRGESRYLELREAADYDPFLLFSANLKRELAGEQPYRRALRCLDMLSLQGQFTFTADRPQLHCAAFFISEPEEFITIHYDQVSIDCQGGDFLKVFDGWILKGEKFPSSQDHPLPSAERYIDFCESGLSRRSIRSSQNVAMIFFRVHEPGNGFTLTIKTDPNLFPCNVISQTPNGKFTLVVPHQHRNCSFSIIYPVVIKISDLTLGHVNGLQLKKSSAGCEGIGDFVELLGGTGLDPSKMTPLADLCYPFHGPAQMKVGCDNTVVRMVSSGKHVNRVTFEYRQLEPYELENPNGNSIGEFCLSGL
Description: activators of CRF receptor 2 with binding protein – uHTS hits, confirmation (AID 602473). It counts as functional. The settings on record: read-out: EC50_Mean.

In assay [7] the target is T5, Endoribonuclease toxin MazF (Escherichia coli K-12, UniProt P0AE70).
T5 sequence (P0AE70 whole entry): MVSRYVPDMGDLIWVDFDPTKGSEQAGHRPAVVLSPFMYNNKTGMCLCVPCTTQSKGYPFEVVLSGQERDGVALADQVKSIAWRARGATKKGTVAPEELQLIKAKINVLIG
In words: MazF toxin RNase activators, dose response, biochemical, fluorescence, single-stranded RNA substrate, uHTS hits (AID 588481). The class given is functional.

Assay [8] deals with T5, Endoribonuclease toxin MazF. In words: fluorescent RNA oligo signal without MazF, dose response, counter-screen for MazEF activator project, biochemical, fluorescence, single-stranded RNase substrate (AID 588502). The class given is functional.
Another assay deals with Prothrombin (Homo sapiens, UniProt P00734). Description: Thrombin 1536 HTS Dose Response Confirmation. [Related pubchem assays: 1046 (Thrombin 1536 HTS; hits were confirmed in this assay)]. The class given is functional.
The target of assay [9] is Heat shock protein HSP 90-alpha (Homo sapiens, UniProt P07900). The class given is functional, organism-based.
Assay [10] deals with T6, Zinc finger protein mex-5 (Caenorhabditis elegans, UniProt Q9XUB2).
T6 sequence (Q9XUB2 whole entry): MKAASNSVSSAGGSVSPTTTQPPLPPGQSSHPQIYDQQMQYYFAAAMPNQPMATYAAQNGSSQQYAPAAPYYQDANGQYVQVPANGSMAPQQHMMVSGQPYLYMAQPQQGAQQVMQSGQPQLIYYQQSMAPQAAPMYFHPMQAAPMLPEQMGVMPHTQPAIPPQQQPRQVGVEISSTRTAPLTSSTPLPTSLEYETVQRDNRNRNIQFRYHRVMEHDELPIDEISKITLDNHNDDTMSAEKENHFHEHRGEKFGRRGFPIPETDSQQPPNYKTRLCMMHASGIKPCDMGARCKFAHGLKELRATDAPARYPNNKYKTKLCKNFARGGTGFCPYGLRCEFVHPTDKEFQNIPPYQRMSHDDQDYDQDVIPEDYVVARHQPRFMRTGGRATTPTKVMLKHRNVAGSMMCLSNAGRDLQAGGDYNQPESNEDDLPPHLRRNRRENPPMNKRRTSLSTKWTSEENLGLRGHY
In words: MEX-5/TCR-2 RNA interaction inhibitors, dose response, biochemical, C. elegans, fluorescence polarization (AID 1960). (Fluorescence polarisation rises when a labelled molecule tumbles more slowly, as on binding a larger partner.)

In the next assay the target is Large T antigen (Simian virus 40, UniProt P03070). The class given is functional, Betapolyomavirus macacae.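 Note: Confirmatory-stage PubChem screen for compounds that inhibit SV40 T antigen.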
Chain of Large T antigen (P03070 whole entry): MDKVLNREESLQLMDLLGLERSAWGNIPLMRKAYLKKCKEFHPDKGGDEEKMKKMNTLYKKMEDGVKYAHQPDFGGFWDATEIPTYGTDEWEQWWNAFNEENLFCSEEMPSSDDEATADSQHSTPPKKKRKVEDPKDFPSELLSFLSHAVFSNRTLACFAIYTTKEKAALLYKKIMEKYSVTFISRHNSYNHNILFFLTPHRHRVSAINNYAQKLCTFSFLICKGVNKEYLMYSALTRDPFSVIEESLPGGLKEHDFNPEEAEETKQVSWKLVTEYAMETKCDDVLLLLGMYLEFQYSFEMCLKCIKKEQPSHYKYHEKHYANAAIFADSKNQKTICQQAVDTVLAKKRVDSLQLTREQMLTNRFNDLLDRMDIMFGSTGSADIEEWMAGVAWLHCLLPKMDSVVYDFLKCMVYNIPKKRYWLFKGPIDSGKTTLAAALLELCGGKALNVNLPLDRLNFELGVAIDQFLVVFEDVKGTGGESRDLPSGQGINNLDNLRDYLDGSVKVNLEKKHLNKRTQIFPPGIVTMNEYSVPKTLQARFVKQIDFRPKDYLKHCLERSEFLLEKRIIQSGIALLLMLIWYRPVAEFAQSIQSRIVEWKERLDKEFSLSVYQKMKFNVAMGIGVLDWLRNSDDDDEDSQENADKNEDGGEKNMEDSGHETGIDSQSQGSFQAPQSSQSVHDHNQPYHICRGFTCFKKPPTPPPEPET
A further assay concerns the target Genome polyprotein (dengue virus type 2, UniProt P29990). In words: Dengue-2 NS5 methyltransferase inhibitors, primary screen, biochemical, confirmation dose response (AID 588689). It counts as functional.

Calls of active or inactive are those of the source.

Chain of Genome polyprotein (P29990 2492-3391 limits assumed): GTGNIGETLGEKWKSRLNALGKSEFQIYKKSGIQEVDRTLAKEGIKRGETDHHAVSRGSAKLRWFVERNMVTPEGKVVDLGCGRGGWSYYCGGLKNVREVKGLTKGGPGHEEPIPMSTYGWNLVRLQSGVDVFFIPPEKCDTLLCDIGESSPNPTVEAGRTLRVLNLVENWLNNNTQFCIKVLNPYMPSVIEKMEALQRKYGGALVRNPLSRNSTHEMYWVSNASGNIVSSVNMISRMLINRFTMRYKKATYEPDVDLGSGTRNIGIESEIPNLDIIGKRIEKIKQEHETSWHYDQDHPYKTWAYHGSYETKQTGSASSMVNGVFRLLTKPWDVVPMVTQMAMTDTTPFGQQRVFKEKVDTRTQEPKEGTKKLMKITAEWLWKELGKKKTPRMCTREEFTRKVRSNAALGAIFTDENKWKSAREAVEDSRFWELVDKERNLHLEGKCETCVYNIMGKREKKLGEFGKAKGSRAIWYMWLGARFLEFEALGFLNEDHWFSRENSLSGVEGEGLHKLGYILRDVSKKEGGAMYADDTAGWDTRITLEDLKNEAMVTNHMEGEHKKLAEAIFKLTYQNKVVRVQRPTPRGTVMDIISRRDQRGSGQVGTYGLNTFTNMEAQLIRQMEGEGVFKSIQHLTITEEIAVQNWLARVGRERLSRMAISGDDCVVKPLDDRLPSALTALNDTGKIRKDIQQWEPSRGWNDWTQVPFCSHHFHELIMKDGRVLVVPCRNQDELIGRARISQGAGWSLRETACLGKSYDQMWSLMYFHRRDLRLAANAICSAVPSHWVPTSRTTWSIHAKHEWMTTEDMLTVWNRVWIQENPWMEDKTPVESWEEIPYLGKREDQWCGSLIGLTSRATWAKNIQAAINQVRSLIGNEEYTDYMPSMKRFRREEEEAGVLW

Regarding `Nc1ncc(Br)cc1S(=O)(=O)Nc1cc(C(F)(F)F)cc(C(F)(F)F)c1`, the IC50 at Cysteine protease ATG4B was 8.94 µM (active); at Phospholipase A2, 8.69 µM (active); in [4] it was 9.12 µM (active); in assay [5], 4.01 µM (active). Also, the EC50 is 3.32 µM (active) on Streptokinase A; 6.6 µM (active) in assay [1]; 19.9 µM (active) in the assay on Streptococcus; 0.341 µM (active) in [2]; 18.2 µM (active) in assay [3].
For `CCC(CC)C1=NN2C(=N)/C(=C\c3cc(C)n(-c4cccc(C)c4)c3C)C(=O)N=C2S1`, the IC50 at Cysteine protease ATG4B was 15.7 µM (active); on Phospholipase A2, 0.975 µM (active). For the same compound, the EC50 on Streptokinase A is > 150 µM (not active); in [1] it was 7.3 µM (active); in [6] it was 6.03 µM (active); with Streptococcus, 17.8 µM (active).
For the compound `CC(=O)Nc1cccc(C(=O)/C=C/c2ccc(N(C)C)cc2)c1`, the EC50 in assay [7] and in assay [8] was > 99 µM (inactive) each time.
For the compound `O=C(O)c1cc([N+](=O)[O-])ccc1NCc1ccccc1Cl`, the IC50 on Cysteine protease ATG4B is 11.9 µM (active); on Phospholipase A2 it was 9.55 µM (active); at Prothrombin it was > 50 µM (not active).
In the case of `Oc1c(Br)cc(Br)c(/C=N/n2c(S)nnc2-c2ccccc2)c1Br`, the IC50 on Cysteine protease ATG4B is 7.7 µM (active); at Large T antigen, 28.2 µM (active); on Genome polyprotein, 17.9 µM (active); at Phospholipase A2, 36.8 µM (inactive); in assay [4], 13.2 µM (active). Further, in [9], the AC50 is 8.53 µM (active). Besides, the EC50 in assay [10] was 5.63 µM (active).
Regarding `Nc1nonc1-n1nnc(C(=O)N/N=C/c2ccc3c(c2)OCO3)c1CSc1ccccc1`, the EC50 in [7] and in assay [8] was > 99 µM (inactive) each time.
